Key:
[1] = biological target: T1, Mcl-1/Bim interaction, recombinant human Mcl-1 (171-327) (Homo sapiens, UniProt Q07820); assay: Cell free Mcl-1: Bim Affinity Assay (Mcl-1 HTRF); type: binding
T1 construct: made in house
Procedure, shortened: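 Displacement of biotinylated Bim 51-76 peptide is followed by TR-FRET. Incubation runs overnight. Duplicate points are fitted with a four-parameter sigmoid to yield IC50.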

[2] = system: OPM-2 human multiple myeloma cell line; assay: Cell Viability Assay (OPM-2 10 FBS); type: cell-based; details: OPM-2 cells, CellTiter-Glo
Procedure, shortened: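 IC50 from 4-parameter logistic fit of CellTiter-Glo luminescence. 3000 cells/well, 10% FBS medium, serial compound dilutions, 16 h, 37 °C/5% CO2; read 25 min post-reagent.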

[3] = cell free Mcl-1:Bim TR-FRET, recombinant human Mcl-1 (171-327)
[4] = Homo sapiens, OPM-2, 16 h, 16 h
[5] = TR-FRET, 0.1 nM Mcl-1 (171-327), 0.05 nM biotin-Bim (51-76)

T1 sequence (Q07820 171-327): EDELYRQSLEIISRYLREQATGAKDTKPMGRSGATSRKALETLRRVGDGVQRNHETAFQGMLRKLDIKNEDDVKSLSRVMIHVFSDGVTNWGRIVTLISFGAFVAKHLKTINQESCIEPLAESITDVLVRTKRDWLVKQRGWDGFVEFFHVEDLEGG

Structure (SMILES) | IC50 [1, 3] [nM] | IC50 ([2]; 16 h) [nM] | IC50 [1, 5] [nM] | IC50 ([2]; 16 h incubation) [nM] | other results
O=C1NS(=O)(=O)C[C@@H]2C[C@@H]2/C=C/[C@H](O)[C@@H]2CC[C@H]2CN2C[C@@]3(CCCc4cc(Cl)ccc43)COc3ccc1cc32 (single isomer, unassigned) [Example 785] | 3.02 | 16000 | – | – | –
COCCO[C@H]1/C=C/C[C@@H]2C[C@H]2S(=O)(=O)NC(=O)c2ccc3c(c2)N(C[C@@H]2CC[C@H]21)C[C@@]1(CCCc2cc(Cl)ccc21)CO3 (single isomer, unassigned) [Example 786] | 1.03 | 1480 | – | – | –
O=C1NS(=O)(=O)C2CC2CC=CC(O)C2CCC2CN2CC3(CCCc4cc(Cl)ccc43)COc3ccc1cc32 (single isomer, unassigned) [Example 793] | 0.44 | 536 | – | – | –
O=C1NS(=O)(=O)C2CC2CC=CC(O)C2CCC2CN2CC3(CCCc4cc(Cl)ccc43)COc3ccc1cc32 (single isomer, unassigned) [Example 796] | 0.45 | 195 | – | – | –
CO[C@H]1/C=C/C[C@@H]2C[C@H]2S(=O)(=O)NC(=O)c2ccc3c(c2)N(C[C@@H]2CC[C@H]21)C[C@@]1(CCCc2cc(Cl)ccc21)CO3 (single isomer, unassigned) [Example 803] | 1.06 | 804 | – | – | –
CO[C@H]1/C=C/C[C@H]2C[C@@H]2S(=O)(=O)NC(=O)c2ccc3c(c2)N(C[C@@H]2CC[C@H]21)C[C@@]1(CCCc2cc(Cl)ccc21)CO3 (single isomer, unassigned) [Example 804] | 0.658 | 377 | – | – | –
COCCO[C@H]1/C=C/C[C@H]2C[C@@H]2S(=O)(=O)NC(=O)c2ccc3c(c2)N(C[C@@H]2CC[C@H]21)C[C@@]1(CCCc2cc(Cl)ccc21)CO3 (single isomer, unassigned) [Example 805] | 1.06 | 718 | – | – | –
O=C1NS(=O)(=O)CC/C=C/C[C@H](O)[C@@H]2CC[C@H]2CN2C[C@@]3(CCCc4cc(Cl)ccc43)COc3ccc1cc32 (single isomer, unassigned) [Example 846] | 2.18 | – | – | – | IC50 [2, 4]: 2760 nM
O=C1NS(=O)(=O)C/C=C/C2(O)CCOC(C2)C2CCC2CN2CC3(CCCc4cc(Cl)ccc43)COc3ccc1cc32 (single isomer, unassigned) [Example 851] | 1 | – | – | – | IC50 [2, 4]: 19700 nM
O=C1NS(=O)(=O)CCOC2CCOC(C2)C2CCC2CN2CC3(CCCc4cc(Cl)ccc43)COc3ccc1cc32 (single isomer, unassigned) [Example 878] | 9.46 | – | – | – | IC50 [2, 4]: 7000 nM
CC[C@@H]1CC/C=C\C(=O)[C@@H]2CC[C@H]2CN2C[C@@]3(CCCc4cc(Cl)ccc43)COc3ccc(cc32)C(=O)NS1(=O)=O (single isomer, unassigned) [Example 885] | 18.3 | – | – | – | IC50 [2, 4]: 616 nM
O=C1NS(=O)(=O)CCC[C@]2(O)CCO[C@H](C2)[C@@H]2CC[C@H]2CN2C[C@@]3(CCCc4cc(Cl)ccc43)COc3ccc1cc32 (single isomer, unassigned) [Example 901] | 0.568 | 5500 | – | – | –
O=C1NS(=O)(=O)C/C=C/[C@]2(O)CCO[C@@H](C2)[C@@H]2CC[C@H]2CN2C[C@@]3(CCCc4cc(Cl)ccc43)COc3ccc1cc32 (single isomer, unassigned) [Example 918] | 2.75 | 15100 | – | – | –
C[C@@H]1CS(=O)(=O)NC(=O)c2ccc3c(c2)N(C[C@@H]2CC[C@H]2[C@@H]2C[C@H](CCO2)O1)C[C@@]1(CCCc2cc(Cl)ccc21)CO3 (single isomer, unassigned) [Example 921] | 2.09 | 9160 | – | – | –
C[C@@H]1CS(=O)(=O)NC(=O)c2ccc3c(c2)N(C[C@@H]2CC[C@H]2[C@@H]2C[C@H](CCO2)O1)C[C@@]1(CCCc2cc(Cl)ccc21)CO3 (single isomer, unassigned) [Example 922] | 0.975 | 2400 | – | – | –
C[C@H]1/C=C/[C@H](O)[C@@H]2CC[C@H]2CN2C[C@@]3(CCCc4cc(Cl)ccc43)COc3ccc(cc32)C(=O)NS(=O)(=O)[C@@H](C)C1 (single isomer, unassigned) [Example 1021] | – | – | 9.09 | 27000 | –
C[C@@H]1/C=C/[C@H](O)[C@@H]2CC[C@H]2CN2C[C@@]3(CCCc4cc(Cl)ccc43)COc3ccc(cc32)C(=O)NS(=O)(=O)[C@@H](C)C1 (single isomer, unassigned) [Example 1022] | – | – | 23.5 | 22700 | –
CC[C@@H]1C[C@@H](C)/C=C/[C@H](O)[C@@H]2CC[C@H]2CN2C[C@@]3(CCCc4cc(Cl)ccc43)COc3ccc(cc32)C(=O)NS1(=O)=O (single isomer, unassigned) [Example 1023] | – | – | 0.307 | 501 | –
CC[C@@H]1C[C@H](C)/C=C/[C@H](O)[C@@H]2CC[C@H]2CN2C[C@@]3(CCCc4cc(Cl)ccc43)COc3ccc(cc32)C(=O)NS1(=O)=O (single isomer, unassigned) [Example 1024] | – | – | 0.296 | 414 | –
CC[C@@H]1C[C@@H](C)/C=C/[C@H](OCCOC)[C@@H]2CC[C@H]2CN2C[C@@]3(CCCc4cc(Cl)ccc43)COc3ccc(cc32)C(=O)NS1(=O)=O (single isomer, unassigned) [Example 1025] | – | – | 0.411 | 141 | –
CC[C@@H]1C[C@H](C)/C=C/[C@H](OCCN2CCOCC2)[C@@H]2CC[C@H]2CN2C[C@@]3(CCCc4cc(Cl)ccc43)COc3ccc(cc32)C(=O)NS1(=O)=O (single isomer, unassigned) [Example 1027] | – | – | 0.945 | 218 | –
O=C1NS(=O)(=O)[C@@H]2COC[C@H]2C/C=C/[C@H](O)[C@@H]2CC[C@H]2CN2C[C@@]3(CCCc4cc(Cl)ccc43)COc3ccc1cc32 (single isomer, unassigned) [Example 1030] | – | – | 0.195 | 271 | –
CO[C@H]1/C=C/C[C@@H]2COC[C@H]2S(=O)(=O)NC(=O)c2ccc3c(c2)N(C[C@@H]2CC[C@H]21)C[C@@]1(CCCc2cc(Cl)ccc21)CO3 (single isomer, unassigned) [Example 1032] | – | – | 0.422 | 575 | –
COCCO[C@H]1/C=C/C[C@@H]2COC[C@H]2S(=O)(=O)NC(=O)c2ccc3c(c2)N(C[C@@H]2CC[C@H]21)C[C@@]1(CCCc2cc(Cl)ccc21)CO3 (single isomer, unassigned) [Example 1033] | – | – | 0.366 | 205 | –
COCCO[C@H]1/C=C/C[C@H]2COC[C@@H]2S(=O)(=O)NC(=O)c2ccc3c(c2)N(C[C@@H]2CC[C@H]21)C[C@@]1(CCCc2cc(Cl)ccc21)CO3 (single isomer, unassigned) [Example 1034] | – | – | 4.04 | 8050 | –
O=C1NS(=O)(=O)C2COCC2CC=CC(O)C2CCC2CN2CC3(CCCc4cc(Cl)ccc43)COc3ccc1cc32 (single isomer, unassigned) [Example 1036] | – | – | 1.36 | – | IC50 ([2]; Homo sapiens, OPM-2, 16 h, 16 h incubation): 11300 nM
COC[C@@H]1C[C@@H](C)CC[C@H](O)[C@@H]2CC[C@H]2CN2C[C@@]3(CCCc4cc(Cl)ccc43)COc3ccc(cc32)C(=O)NS1(=O)=O (single isomer, unassigned) [Example 1037] | – | – | 0.831 | 744 | –
COCCO[C@H]1/C=C/C(C)C[C@@H](COC)S(=O)(=O)NC(=O)c2ccc3c(c2)N(C[C@@H]2CC[C@H]21)C[C@@]1(CCCc2cc(Cl)ccc21)CO3 (single isomer, unassigned) [Example 1039] | – | – | 0.389 | 198 | –

Source: patent US12091425B2 (AMGEN INC., priority 2016, dated 2024)
